Source: US12396983B2, “Composition comprising rilmenidine compound as active ingredient for treatment of fragile X syndrome or related developmental disability” (NEUROVENTI, priority 2020, dated 2025)

Tests used:
[1] = test system: animal model lacking Cntnap2; experiment: three-chamber test, social preference (novel vs familiar mouse) in Cntnap2-deficient autism animal model; assay type: in vivo; settings: Cntnap2-deficient mice treated with rilmenidine, FIG. 5
Method: To confirm the therapeutic effect of rilmenidine on social deficits, one of the phenotypes of developmental disorders, a three-chamber test was performed using an animal model lacking Cntnap2. FIG. 5 is a result of evaluating whether or not the time spent with a novel mouse is longer than that of a familiar mouse after exploring a stimulus mouse (familiar) for 10 minutes in the experimental animal, and after adding a new stimulus mouse (novel) together for 10 minutes. In this case, the old mouse is called familiar, and the new mouse is called novel. […] Experimental results were expressed as a preference index by measuring the time the test mouse explores each mouse or the sniffing time to each mouse. The higher the preference index, the more time spent with the novel mouse than with the familiar mouse, or the more time spent sniffing with the novel mouse than with the familiar mouse. […] Through this, it was confirmed that rilmenidine treatment can improve sociability (FIG. 5).

[2] = test system: Fmr1-deficient animal model; experiment: three-chamber test, sociability in fragile X syndrome animal model; assay type: in vivo; settings: rilmenidine intraperitoneally (1 mg/kg / 50 ug/kg printed), 30 minutes after administration, FIG. 1
Method: Purchased a 5-week-old Fmr 1 knockout mouse (Jackson Laboratory, USA) weighing about 22 g to 24 g, and acclimatized to an environment with a temperature of 23±2° C. and humidity of 55±10% and a light-dark cycle of 12 hours while allowing them to freely consume water and feed. After breeding (Konkuk University Laboratory Animal Center), they were used for experiments. For all animals, wild-type (WT) with normal FMRP expression and male KO mice lacking FMRP (Fragile X mental retardation protein) expression (which induces Fragile X Syndrome (FXS)) were used. Dosing and experiments were performed according to the age of the week. Dosing was performed at the same time. Behavioral experiments were conducted 30 minutes after administration. It was divided into groups administered with 1 mg/kg each of rilmenidine (Sigma Aldrich) in FMRP expression-deficient knock-out (Knock-Out) mice, wild-type (Wild Type) mice, and 0.25 DMSO in FMRP expression-deficient knock-out mice (6 mice per group). For the drug administration group, rilmenidine was dissolved in 0.25% DMSO and then administered intraperitoneally at a dose of 50 ug/kg. Meanwhile, 0.25% DMSO was intraperitoneally administered to the control group. […] The time the test mouse explored each stimulus mouse was measured and expressed as %.

[3] = test system: animal model treated with MK-801 in wild-type mice; experiment: novel object recognition test in MK-801 treated animal model; assay type: in vivo, mouse; settings: wild-type mice treated with MK-801 and then rilmenidine (0.3 mg/kg), test 24 hours after training, FIG. 3
Method: The cognitive improvement effect of rilmenidine was confirmed using an animal model treated with MK-801 in wild-type mice. The experiment was a novel object recognition test, where two identical objects were placed in the same location and trained, and 24 hours later, one identical object (familiar) and the other new object (novel) were put in, and the cognitive ability of the animal was tested by evaluating whether they could distinguish between familiar and new objects.

[4] = test system: animal model treated with MK-801 in wild-type mice; experiment: pre-pulse suppression (startle response) test in MK-801 treated animal model; assay type: in vivo, mouse; settings: wild-type mice treated with MK-801 and then rilmenidine intraperitoneally, FIG. 2
Method: The startle response was confirmed in an animal model treated with MK-801 in wild-type mice. Mice were divided into groups, and 0.9% physiological saline (saline solution), rilmenidine, or a positive control drug (aripiprazole) was intraperitoneally administered to each group. Then, sensorimotor gating was evaluated through a pre-wave suppression test (converted using Equation 1). […] Pre-pulse suppression (%)=100−[(startle response to pre-stimulus+stimulus)/(startle response to stimulus)]*100 [Equation 1] Confirmation of Cognitive Improvement Effect of Rilmenidine

[5] = test system: animal model lacking Cntnap2; experiment: three-chamber test, sociability index in Cntnap2-deficient autism animal model; assay type: in vivo, mouse; settings: Cntnap2-deficient mice treated with rilmenidine, FIG. 4
Method: To confirm the therapeutic effect of rilmenidine on social deficits, one of the phenotypes of developmental disorders, a three-chamber test was performed using an animal model lacking Cntnap2. The sociability index of FIG. 4 represents a value obtained by dividing stranger (retention time for a mouse) by empty (retention time for an empty space).

C1COC(NC(C2CC2)C2CC2)=N1 [rilmenidine, N-(dicyclopropylmethyl)-4,5-dihydro-1,3-oxazol-2-amine]
preference index: sniffing time to novel mouse vs familiar mouse [1]: sniffed more | preference index: time spent with novel mouse vs familiar mouse [1]: spent more time | time the test mouse explored novel vs familiar stimulus mouse (sociability) [2]: more time was spent with the novel mouse than with the familiar mouse | ability to distinguish novel object from familiar object (cognitive improvement) [3]: the ability to distinguish novel objects was improved | pre-pulse suppression [4]: the reduced pre-pulse suppression was restored | sociability index: retention time for mouse (stranger) vs empty space [5]: the retention time for the mouse was longer than the retention time for the empty space
